Source: patent US4003936A, “2-Hydrocinnampyl-1,3-cyclopentanediones” (Zaidan Hojin Biseibutsu Kagaku Kenkyu Kai, priority 1970, dated 1977)
Each block holds one molecule with its values, some of them ahead of it.

Legend:
tyrosine hydroxylase = target: T1, tyrosine hydroxylase (Bos taurus, UniProt P17289); experiment: inhibition of tyrosine hydroxylase (method of J. Antibiot. 23, 514 (1970)); format: biochemical; set-up: inhibition: dose or concentration left out as unconfirmed; conditions: for inhibition at 0.1 mg: at 100 meg. (figure after the slash in the cell); for inhibition at 0.1 mg / inhibition at 0.05 mg / inhibition: read-out: Inhibition of the product (1a) to tyrosine hydroxylase; for inhibition at 0.05 mg: at 50 meg. (figure after the slash in the cell); for inhibition: at 200 meg. (figure after the slash in the cell)
T1 sequence (P17289 1-491): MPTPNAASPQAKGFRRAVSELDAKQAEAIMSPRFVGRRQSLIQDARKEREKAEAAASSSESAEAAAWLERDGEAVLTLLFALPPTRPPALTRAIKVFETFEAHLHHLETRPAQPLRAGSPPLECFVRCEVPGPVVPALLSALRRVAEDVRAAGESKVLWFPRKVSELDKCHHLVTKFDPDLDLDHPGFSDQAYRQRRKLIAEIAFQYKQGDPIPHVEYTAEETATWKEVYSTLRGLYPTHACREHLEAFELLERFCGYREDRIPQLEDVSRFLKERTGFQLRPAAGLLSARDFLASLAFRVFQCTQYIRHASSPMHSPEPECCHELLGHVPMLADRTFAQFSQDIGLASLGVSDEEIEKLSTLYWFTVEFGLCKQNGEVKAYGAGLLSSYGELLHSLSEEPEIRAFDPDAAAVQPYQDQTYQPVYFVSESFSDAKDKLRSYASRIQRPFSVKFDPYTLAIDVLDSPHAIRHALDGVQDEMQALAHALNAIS
Excerpt: (§1) Pharmacological properties of the new compounds of the present invention are now described. The new compounds of the present invention have been examined for their biological activities, and their inhibition to tyrosine hydroxylase are summarised in Table 2 later. The details of the test methods used and the close relationship of the biological activities between in vitro and in vivo are well presented in some published literatures (for example, see "J. Antibiot." 23, 514 (1970) and "J. Am. Chem. Soc." 93, 1285 (1971)). For instance, 2-(2-hydroxyhydrocinnamoyl)-1,3-cyclopentanedione, typical one of the new compounds of the present invention, was tested by dissolving in distilled water (pH was adjusted to 2.5) and administering to mice. […] Effect of this compound on tyrosine hydroxylase was also tested by the method described in the "Journal of Antibiotics" 23, 514 (1970).
In these Examples, various derivatives of 2cinnamoyl-1,3-cyclopentanedione of the formula [IVa] as prepared in Examples 3 - 34 were converted into the corresponding derivatives of 2-hydrocinnamoyl-1,3-cyclopentanedione of the formula [Ia] by hydrogenating them in the same manner as in the catalytic hydrogenation step of Example 1 (3). Nature of R1 and R2 in the resulting hydrogenation products 2-hydrocinnamoyl-1,3-cyclopentanediones [Ia], their yields, melting point and elementary analysis data are summarised in Table 2 with reference to the amount and nature of the catalyst and solvent which were employed in the catalytic hydrogenation step. In Table 2, there are also shown the degrees of inhibition (%) of the produced derivatives of 2-hydrocinnamoyl-1,3-cyclopentanedione [Ia] to tyrosine hydroxylase to provide a measure of their biological properties, the inhibition degrees as shown being determined by the same method as that used to estimate the inhibition % of 2-(2-hydroxyhydrocinnamoyl)-1,3-cyclopentanedione as mentioned above.

rats [1] = experiment: blood pressure of rats on daily injection or oral administration; format: in vivo
Procedure: (§2) Hydroxylation of tyrosine is the rate-limiting step of norepinephrine biosynthesis. Therefore, inhibition of tyrosine hydroxylase results in inhibition of norepinephrine synthesis in vivo which results in lowering the blood pressure. […] The hypotensive effect can be seen more markedly, when it is given to genetically hypertensive rats which was developed by Prof. Okamoto, Midical School, University of Kyoto. When 6.25 mg/Kg. was intraperitoneally injected to a rat of 185 mm. blood pressure and another rat of 188 mm., then the blood pressure was lowered to […]. and 118-162 mm. respectively during 1-22 hours after the injection. When 125 mg/Kg. was intraperitoneally injected to a rat of 195 mm., the pressure was reduced to 155-166 mm. during 1-22 hours after the injection. […] It caused 20-30% reduction which continued for about 5 days after the last oral administration.

hypertensive patients = experiment: daily administration to hypertensive patients for 30 days; format: in vivo, human; conditions: 300 mcg daily divided into three times
rats [2] = experiment: sedative effect after injection of a large dose, rats; format: in vivo
[3] = acute toxicity (LD50) in mice; conditions: mouse, in vivo, dissolved in distilled water pH 2.5
Excerpt: as §1

[4] = test system: genetically hypertensive rats; experiment: hypotensive effect in genetically hypertensive rats; format: in vivo; conditions: for blood pressure after injection: 1-22 hours after the injection
Procedure: as §2

mice = experiment: sedative effect after injection of a large dose, mice; format: in vivo
[5] = oral, daily 3.1, 6.25, 12.5, 25 mg/Kg for three days

SMILES: O=C1CCC(=O)C1C(=O)CCc1ccccc1O [Example 38, 2-(2-hydroxyhydrocinnamoyl)-1,3-cyclopentanedione]
- effect on blood pressure (rats [1]): lowered the blood pressure
- hypotensive effect (hypertensive patients): showed hypotensive effect
- side effect (hypertensive patients): without any side effect
- sedative effect (rats [2]): did not cause sleeping and the sedative effect was not recognized
- LD50 ([3]; ip, intraperitoneal injection): 283 mg/kg
- LD50 ([3]; oral administration): 550 mg/kg
- inhibition to tyrosine hydroxylase (tyrosine hydroxylase; at 12.5 mcg/cc): 30%
- inhibition to tyrosine hydroxylase (tyrosine hydroxylase; at 25 mcg/cc): 38%
- inhibition to tyrosine hydroxylase (tyrosine hydroxylase; at 50 mcg/cc): 44%
- inhibition at 0.1 mg (tyrosine hydroxylase): 52%
- relation with 2-amino-4-hydroxy-6,7-dimethyltetrahydropteridine (Lineweaver-Burk plot) (tyrosine hydroxylase; cofactor 2-amino-4-hydroxy-6,7-dimethyltetrahydropteridine): competitive
- relation with tyrosine (Lineweaver-Burk plot) (tyrosine hydroxylase; substrate tyrosine): uncompetitive
- blood pressure after injection ([4]; 6.25 mg/Kg intraperitoneally, rat of 185 mm. blood pressure): 25-155 mm.
- blood pressure after injection ([4]; 6.25 mg/Kg intraperitoneally, rat of 188 mm. blood pressure): 118-162 mm.
- blood pressure after injection ([4]; 125 mg/Kg intraperitoneally, rat of 195 mm. blood pressure): 155-166 mm.
- duration of the blood pressure reduction after the last oral administration [4, 5]: about 5 days
- reduction of blood pressure [4, 5]: 20-30%
- sedative effect (mice): did not cause sleeping and the sedative effect was not recognized

SMILES: COc1ccc(CCC(=O)C2C(=O)CCC2=O)cc1 [Example 41, 2-(4-Methoxyhydrocinnamoyl)-1,3-cyclopentanedione]
- inhibition at 0.1 mg (tyrosine hydroxylase): 29%

SMILES: COC(=O)c1ccc(CCC(=O)C2C(=O)CCC2=O)cc1 [Example 50, 2-(4-Methoxycarbonylhydrocinnamoyl)-1,3-cyclopentanedione]
- inhibition (tyrosine hydroxylase): 41%

SMILES: COc1cccc(CCC(=O)C2C(=O)CCC2=O)c1 [Example 51]
- inhibition (tyrosine hydroxylase): 6.4%

SMILES: CCOc1ccc(CCC(=O)C2C(=O)CCC2=O)cc1 [Example 52]
- inhibition (tyrosine hydroxylase): 15.6%

SMILES: CC(C)c1ccc(CCC(=O)C2C(=O)CCC2=O)cc1 [Example 54]
- inhibition (tyrosine hydroxylase): 36.8%

SMILES: CCOC(=O)c1ccc(CCC(=O)C2C(=O)CCC2=O)cc1 [Example 55]
- inhibition (tyrosine hydroxylase): 12.8%

SMILES: CCCOC(=O)c1ccc(CCC(=O)C2C(=O)CCC2=O)cc1 [Example 56]
- inhibition (tyrosine hydroxylase): 4.6%

SMILES: N#Cc1ccc(CCC(=O)C2C(=O)CCC2=O)cc1 [Example 57]
- inhibition (tyrosine hydroxylase): 77.4%

SMILES: CN(C)c1ccc(CCC(=O)C2C(=O)CCC2=O)cc1 [Example 58]
- inhibition (tyrosine hydroxylase): 10.1%

SMILES: O=C1CCC(=O)C1C(=O)CCc1cccc(C(F)(F)F)c1 [Example 59]
- inhibition (tyrosine hydroxylase): 30.5%

SMILES: COc1cc(CCC(=O)C2C(=O)CCC2=O)ccc1O [Example 61, 2-(4-Hydroxy-3-methoxyhydrocinnamoyl)-1,3-cyclopentanedione]
- inhibition to tyrosine hydroxylase (tyrosine hydroxylase; at 200 mcg/cc): about 10%

SMILES: O=C1CCC(=O)C1C(=O)CCc1ccc(Cl)c(Cl)c1 [Example 62, 2-(3,4-dichlorohydrocinnamoyl)-1,3-cyclopentanedione]
- inhibition to tyrosine hydroxylase (tyrosine hydroxylase; at 100 mcg/cc): 45%

SMILES: O=C1CCC(=O)C1C(=O)CCc1ccc2c(c1)OCO2 [Example 63, 2-(3,4-methylenedioxyhydrocinnamoyl)-1,3-cyclopentanedione]
- inhibition to tyrosine hydroxylase (tyrosine hydroxylase; at 100 mcg/cc): 22.5%

SMILES: COc1ccc(CCC(=O)C2C(=O)CCC2=O)cc1O [Example 64, 2-(3-hydroxy-4-methoxyhydrocinnomoyl)-1,3-cyclopentanedione]
- inhibition to tyrosine hydroxylase (tyrosine hydroxylase; at 200 mcg/cc): 29.5%

SMILES: O=C1CCC(=O)C1C(=O)CCc1ccc(O)c(O)c1 [Example 66, 2-(3,4-dihydroxyhydrocinnamoyl)-1,3-cyclopentanedione]
- inhibition to tyrosine hydroxylase (tyrosine hydroxylase; at 100 mcg/cc): 85%

Second part, the molecule after the results:

- inhibition at 0.1 mg (tyrosine hydroxylase): 60%
SMILES: O=C1CCC(=O)C1C(=O)CCc1ccccc1 [Example 35, 2-hydrocinnamoyl-1,3-cyclopentanedione]

- inhibition at 0.1 mg (tyrosine hydroxylase): 23%
SMILES: O=C1CCC(=O)C1C(=O)CCc1cccc(O)c1 [Example 39, 2-(3-hydroxyhydrocinnamoyl)-1,3-cyclopentanedione]

- inhibition at 0.05 mg (tyrosine hydroxylase): 32%
SMILES: O=C1CCC(=O)C1C(=O)CCc1ccc(O)cc1 [Example 40, 2-(4-Hydroxyhydrocinnamoyl)-1,3-cyclopentanedione]

- inhibition at 0.1 mg (tyrosine hydroxylase): 10%
SMILES: O=C1CCC(=O)C1C(=O)CCc1ccccc1Cl [Example 42, 2-(2-chlorohydrocinnamoyl)-1,3-cyclopentanedione]

- inhibition at 0.1 mg (tyrosine hydroxylase): 42%
SMILES: O=C1CCC(=O)C1C(=O)CCc1ccc(Cl)cc1 [Example 43, 2-(4-chlorohydrocinnamoyl)-1,3-cyclopentanedione]

- inhibition at 0.1 mg (tyrosine hydroxylase): 36%
SMILES: O=C1CCC(=O)C1C(=O)CCc1cccc(F)c1 [Example 44]

- inhibition (tyrosine hydroxylase): 62%
SMILES: O=C1CCC(=O)C1C(=O)CCc1ccc(F)cc1 [Example 45, 2-(4-Fluorohydrocinnamoyl)-1,3-cyclopentanedione]

- inhibition (tyrosine hydroxylase): 53%
SMILES: O=C1CCC(=O)C1C(=O)CCc1ccccc1F [Example 46]

- inhibition (tyrosine hydroxylase): 7.6%
SMILES: COc1ccccc1CCC(=O)C1C(=O)CCC1=O [Example 47]

- inhibition at 0.05 mg (tyrosine hydroxylase): 50%
SMILES: O=C1CCC(=O)C1C(=O)CCc1ccc(Br)cc1 [Example 48]

- inhibition (tyrosine hydroxylase): 44%
SMILES: Cc1ccc(CCC(=O)C2C(=O)CCC2=O)cc1 [Example 49, 2-(4-methylhydrocinnamoyl)-1,3-cyclopentanedione]

- inhibition (tyrosine hydroxylase): 50.7%
SMILES: O=C1CCC(=O)C1C(=O)CCc1cccc(Br)c1 [Example 53]

- inhibition at 0.1 mg (tyrosine hydroxylase): 10%
SMILES: CC(=O)Oc1ccccc1CCC(=O)C1C(=O)CCC1=O [Example 60]

- inhibition to tyrosine hydroxylase (tyrosine hydroxylase; at 100 mcg/cc): 5%
SMILES: COc1cccc(CCC(=O)C2C(=O)CCC2=O)c1O [Example 65, 2-(2-hydroxy-3-methoxyhydrocinnamoyl)-1,3-cyclopentanedione]
